Experimental data as given in publication PMC5304190, “Inhibitory effects of cholinesterase inhibitor donepezil on the Kv1.5 potassium channel” (Scientific Reports, 2017).

Target: T1, Kv1.5 (Rattus norvegicus, UniProt P19024)
T1 construct: gene Kcna5; Rat Kv1.5 in pEYFP-N1 vector, expressed in HEK293 cells
Test: whole-cell patch clamp of Kv1.[…] expressed in HEK293 cells
Type: cell-based

T1 sequence (P19024 whole entry): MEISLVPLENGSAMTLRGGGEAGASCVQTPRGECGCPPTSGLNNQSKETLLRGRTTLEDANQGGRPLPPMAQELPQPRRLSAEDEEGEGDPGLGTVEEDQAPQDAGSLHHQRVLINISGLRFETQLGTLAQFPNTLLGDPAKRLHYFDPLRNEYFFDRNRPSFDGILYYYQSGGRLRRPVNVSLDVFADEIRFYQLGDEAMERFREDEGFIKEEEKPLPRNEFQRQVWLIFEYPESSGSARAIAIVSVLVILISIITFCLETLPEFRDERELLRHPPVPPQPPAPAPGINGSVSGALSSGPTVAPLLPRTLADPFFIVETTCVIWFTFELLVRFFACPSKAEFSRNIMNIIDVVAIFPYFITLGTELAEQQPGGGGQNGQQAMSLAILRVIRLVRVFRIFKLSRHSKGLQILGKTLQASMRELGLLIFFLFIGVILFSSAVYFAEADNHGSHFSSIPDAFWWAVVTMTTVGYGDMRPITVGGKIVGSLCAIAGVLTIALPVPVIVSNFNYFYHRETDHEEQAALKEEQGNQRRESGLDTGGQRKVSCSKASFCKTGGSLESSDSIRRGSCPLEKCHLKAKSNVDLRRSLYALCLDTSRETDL

Compound `COc1cc2c(cc1OC)C(=O)C(CC1CCN(Cc3ccccc3)CC1)C2` (stereo not shown) [donepezil] has an IC50 of 72.5 ± 0.5 µM.
